Data as given in patent US20060058260A1, “Combination therapy with gemcitabine and zd6126” (priority 2002, published 2006).
“And” between values parts separate entries of the source, which are not always exact repeats. Equal entries are not always repeated. Structures can show the parent of a compound that is named as a salt.

Key:
[1] = Body weight in the orthotopic pancreatic tumour model in nude mice; format: in vivo; settings: 25 days after tumour cell injection; gemcitabine 100 mg/kg i.p. twice weekly, ZD6126 75 mg/kg i.p. daily 5 days per week
Experimental: (§1) Nude mice (n=8 to 10 per group) were treated 9 days after injection of 1×10^6 L3.6pl cells into the pancreas, with gemcitabine alone (100 mg/kg by intraperitoneal injection (i.p.) twice weekly on treatment days 2, 5, 9, 12), ZD6126 alone (75 mg/kg i.p. daily for 5 days per week on treatment days 1-5 and 8-12), or a combination of both agents ie gemcitabine (100 mg/kg i.p. twice weekly) and ZD6126 (75 mg/kg i.p. daily for 5 days per week). Thus the combination group received ZD6126 on treatment days 1-5 and 8-12 and gemcitabine on treatment days 2 and 5 and 9 and 12. On the days where both agents were given, gemcitabine was dosed at least 1 hour before ZD6126. A control group of 10 mice received intraperitoneal injections of an equivalent volume of saline according to the same treatment schedule as the combination group. The animals were sacrificed 25 days after tumour cell injection.

[2] = tested on: L3.6pl cells; test: Primary pancreatic tumour growth and metastases growing orthotopically in nude mice; format: in vivo; settings: gemcitabine 100 mg/kg i.p. twice weekly, ZD6126 75 mg/kg i.p. daily 5 days per week; for Liver Met: animals with liver metastases / animals in group; for Liver Met / LN Met / Peritoneal Carcinosis / Tumour Weight Average ± std dev: 25 days after tumour cell injection; for LN Met: animals with lymph node metastases / animals in group; for Incidence Pancreas: animals with pancreatic tumours / animals in group, sacrificed 25 days after tumour cell injection; for Peritoneal Carcinosis: animals with peritoneal carcinosis / animals in group; for Tumour Weight Average ± std dev: primary pancreatic tumour weight
Experimental: as §1, with “Model to Investigate Effects of ZD6126 and Gemcitabine Therapy on Primary Pancreatic Tumour Growth and Metastases Growing Orthotopically in Nude Mice Nude” for “Nude”, “injection. The incidence of pancreatic tumours, liver metastases, lymph node metastases and peritoneal carcinosis was evaluated. The primary pancreatic tumour weight was measured. All macroscopically enlarged lymph nodes and liver nodules were confirmed by histopathology (H&E staining).” for “injection.”

COc1cc2c(c(OC)c1OC)-c1ccc(OP(=O)(O)O)cc1[C@@H](NC(C)=O)CC2 [ZD6126, N-acetylcolchinol-O-phosphate]
Body Weight Average ± std dev [1]: 18.5 ± 1.9 g
Liver Met [2]: 1/8
LN Met [2]: 2/8
Incidence Pancreas [2]: 8/8
Peritoneal Carcinosis [2]: 0/8
Tumour Weight Average ± std dev [2]: 541 mg and 541 ± 201 mg

Nc1ccn([C@@H]2O[C@H](CO)[C@@H](O)C2(F)F)c(=O)n1 [Gemcitabine, 2′-deoxy-2′,2′-difluorocytidine monohydrochloride (β-isomer)]
Body Weight Average ± std dev [1]: 19.1 ± 2.2 g
Liver Met [2]: 2/10
LN Met [2]: 10/10
Incidence Pancreas [2]: 10/10
Peritoneal Carcinosis [2]: 1/10
Tumour Weight Average ± std dev [2]: 687 ± 157 mg
Tumour Weight Average ± std dev ([2]; listed as gemcitabine): 687 mg
